Entries after “also recorded” stand apart in the source; their conditions may differ.
Tests used:
Format in all cases: in vivo, human
[1] = test system: patients with symptomatic non-obstructive HCM (nHCM) or HCM with MVO; assay: Phase 2 trial (Example 2): cardiac biomarkers NT-proBNP and hs-cTnI
Procedure: (§1) Echocardiograms obtained on day 1 of treatment, at weeks 2, 4, 6, and 10 of treatment, and two weeks after the last dose were analyzed for several key structural and physiologic metrics; measurements of N-terminal prohormone of brain natriuretic peptide (NT-proBNP), and cardiac troponin I were also monitored. Ambulatory cardiac monitoring was conducted one week before day 1 of treatment and at week 9.
(§2) The exploratory PD endpoints included but were not limited to: (i) The relationship of plasma concentration ranges of CK-3773274 to LVEF, LVFS, global longitudinal strain (GLS); (ii) Observed values and change from baseline in the echocardiography parameters described in Table 13 and evaluated by the core laboratory during treatment at Weeks 2, 4, 6, 10, and 12; (iii) Change in NT-proBNP from baseline to Week 10; (iv) Change in hs-cTnI from baseline to Week 10; (v) Proportion of patients with LVEF ≥50% and ≥50% reduction from baseline NT-proBNP.
For select PD measurements with statistical distributions likely to depart from normal, proportional change from baseline was evaluated.

[2] = Phase 1 plasma pharmacokinetics, CYP2D6 poor metabolizer cohort; settings: single 10 mg
Procedure: CYP2D6 poor metabolizer cohort.
CYP2D6 genotypes were determined at screening for all study participants; those identified as CYP2D6-PMs were excluded from the SAD and MAD cohorts but were invited to participate in the CYP2D6-PM cohort. The first individual in the CYP2D6-PM cohort was dosed after the SAD 25-mg cohort (FIG. 2). […] Nine participants were randomized (7:2) with a sentinel dosing group consisting of the first 2 participants treated.
Pharmacokinetic analyses. For all study groups, blood samples for PK assessment were obtained pre-dose, up to 12 times daily on day 1, and then at regular intervals throughout the study. Blood samples were collected according to the following schedule: SAD Cohorts: Day 1: pre-dose and 0.25, 0.5, 1, 1.5, 2, 2.5, 3, 4, 6, 8, 12, 16, 24, 36, 48, 72, 96, and 216 h post dose. MAD Cohorts (14-day Dosing): Day 1: pre-dose and 0.25, 0.5, 1, 1.5, 2, 2.5, 3, 4, 6, 8, and 12 h post dose; Days 2, 4, 5, 6, and 9: pre-dose (corresponding to trough samples following dosing on days 1, 3, 4, 5, and 8) and 1.5 h post dose; Days 3, 7, 8, 10, 11, 12, and 13: pre-dose (corresponding to trough samples following dosing on days 2, 6, 7, 9, 10, 11, and 12); Day 14: pre-dose and 0.25, 0.5, 1.5, 2, 2.5, 3, 4, 6, 8, 12, 16, 24, 36, 48, 72, and 168 h post dose. MAD Cohort (17-Day Dosing): Day 1: pre-dose and 0.25, 0.5, 1, 1.5, 2, 2.5, 3, 4, 6, 8, and 12 h post dose; Days 2, 4, 5, 6, and 9: pre-dose (corresponding to trough samples following dosing on days 1, 3, 4, 5, and 8) and 1.5 h post dose; Days 3, 7, 8, 10, 11, 12, 13, 14, 15, and 16: pre-dose (corresponding to trough samples following dosing on days 2, 6, 7, 9, 10, 11, and 12); Day 17: pre-dose and 0.25, 0.5, 1.5, 2, 2.5, 3, 5, 7, 9, 12, 24, 36, 48, 72, and 168 h post dose. CYPD6-PM Cohort: Day 1: pre-dose and 0.25, 0.5, 1, 1.5, 2, 2.5, 3, 4, 6, 8, 12, 16, 24, 36, 48, 72, 96, 216, 312, and 552 h post dose. Food-Effect Cohort: Day 1: pre-dose and 0.25, 0.5, 1, 1.5, 2, 2.5, 3, 4, 6, 8, 12, 16, 24, 36, 48, 72, 96, 144, and 216 h post dose. Standard non-compartmental methods were used to calculate PK parameters using Phoenix® WinNonlin® Version 7.0; actual sample collection times were utilized.

[3] = test system: patients with symptomatic non-obstructive HCM (nHCM) or HCM with MVO; assay: Phase 2 trial (Example 2): echocardiography (LVEF, diastolic function)
Procedure: as §1
The secondary PD endpoints of the study were: Slope of the relationship of the plasma concentration of CK-3773274 to the change from baseline in the resting LVEF.
Echocardiography parameters were evaluated by the core laboratory at baseline and during treatment at the Weeks 2, 4, 6, and 10 and after a 2-week washout at Week 12 (follow-up visit).
as §2

[4] = end of treatment (week 10), second interim
[5] = CYP2D6 poor metabolizers, geometric mean, n = 7
[6] = CYP2D6 poor metabolizers, mean ± SD, n = 7

Q: Which “symptoms, NT-proBNP and hs-Troponin I in patients with mid-ventricular obstruction (MVO)” value ([1]; 7 patients with MVO, second interim) does the source give for `CCc1nc(-c2ccc3c(c2)CC[C@H]3NC(=O)c2cnn(C)c2)no1` [aficamten, (R)—N-(5-(5-ethyl-1,2,4-oxadiazol-3-yl)-2,3-dihydro-1H-inden-1-yl)-1-methyl-1H-pyrazole-4-carboxamide] here?
A: All patients in this subgroup showed symptom improvement and reduction in both NT-proBNP and hs-Troponin I levels

Q: And the “cardiac biomarkers (NT-proBNP, hs-cTnI) after washout” value ([1]; after the 2-week washout)?
A: rebounded upwards off drug

Q: What about the “reduction of NT-proBNP (geometric mean, proportional change from baseline)” value ([1]; end of treatment (week 10), interim, p<0.0001) of the same compound?
A: 56%

Q: And the “reduction of hs-cTnI (proportional to baseline)” value ([1]; end of treatment (week 10), interim, p<0.05)?
A: 21%

Q: What about the mean (SE) reduction of NT-proBNP [1, 4] of the same compound?
A: -870 pg/mL

Q: And the “mean (SE) reduction of hs-cTnI” value [1, 4]?
A: -24.8 ng/L

Q: What about the “reduction of NT-proBNP” value ([1]; end of treatment (week 10), second interim, p<0.0001) of the same compound?
A: 55%

Q: And the “reduction of hs-cTnI” value ([1]; end of treatment (week 10), second interim, p<0.05)?
A: 21%

Q: What about the AUC24 [2, 5] of the same compound?
A: 495 ng·h/mL

Q: What about the AUCinf [2, 5] of the same compound?
A: 2966 ng·h/mL

Q: And the Cmax [2, 5]?
A: 57.3 ng/mL

Q: What about the CL/F [2, 6] of the same compound?
A: 3.6 ± 1.4 L/h

Q: What about the t1/2 [2, 6] of the same compound?
A: 110 h

Q: What about the “impact of CYP2D6-PM phenotype on pharmacokinetics” value ([2]; versus extensive metabolizers) of the same compound?
A: Neither food nor CYP2D6-PM phenotype had a clinically meaningful impact; also recorded: did not appear to have reduced clearance

Q: What about the “Doppler measures of diastolic function (lateral e′; lateral E/e′; septal E/e′)” value ([3]; baseline to week 10, second interim) of the same compound?
A: generally improved

Q: What about the “change in LVEF from baseline to Week 10” value ([3]; second interim, N = 41) of the same compound?
A: −5.5%

Source: patent US20240091203A1, “METHODS FOR TREATING NON-OBSTRUCTIVE HYPERTROPHIC CARDIOMYOPATHY” (Cytokinetics, Incorporated, priority 2022, published 2024)
